Experimental findings from US9980943B2, “Methods of treating muscular dystrophy” (BOARD OF REGENTS OF THE NEVADA SYSTEM OF HIGHER EDUCATION, …, priority 2013, dated 2018) are described below.

Format in all cases: cell-based, mouse
Assay [1] has as its system α7 integrin (LacZ reporter in α7βgal+/− myoblasts). In words: Myoblast α7+/LacZ integrin FDG assay (Burkin assay in myoblasts, 96-well). The following applies: α7+/LacZ myoblasts, 96-well.
In assay [2] the test system is β-galactosidase in CMV-LacZ C2C12 myotubes. In words: CMV-LacZ secondary screen in C2C12 myotubes (β-Gal stabilizing assay). The following applies: for CMV-LACZ in Myotubes, signal relative to DMSO: C2C12 CMV-LacZ myotubes, fold relative to DMSO; for CMV-LACZ in Myotubes (β-galactosidase activity relative to DMSO): CMV-LacZ C2C12 myotubes, 96-well format. An outline of the steps: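 β-Gal level was the read-out, measured in a clonal C2C12 line expressing LacZ from a CMV promoter. Dose-response curves used six concentrations, 0.5 μM up to 40 μM, with duplicate points.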

The test system of assay [3] is α7 integrin (LacZ reporter in α7+/LacZ myotubes). In words: Myotube α7 integrin FDG assay (Burkin assay in myotubes, 96-well). The following applies: myotubes.

Molecules are shown by their SMILES.

For `COC(=O)Cc1c(O)ccn(Cc2ccc3c(c2)OCO3)c1=O` [MLS000721525-01], the “Burkin Assay in Myoblasts, value relative to DMSO” value in assay [1] (0.5 uM) worked out at 1.086; in assay [1] (1 uM) it was 1.086; in assay [1] (5 uM), 0.9834; in assay [1] (10 uM), 1.01; in assay [1] (20 uM) it was 0.9936; in assay [1] (40 uM), 0.985. Moreover, the “CMV-LACZ in Myotubes, signal relative to DMSO” value in assay [2] (5 uM) is 0.866; in assay [2] (10 uM) it was 1.036; in assay [2] (20 uM) it was 0.8409; in assay [2] (40 uM) it was 0.9127. Moreover, the “Burkin Assay in Myotubes (signal relative to DMSO)” value was found to be 0.6646 in assay [3] (0.5 uM); 0.9136 in assay [3] (1 uM); 0.6693 in assay [3] (5 uM); 0.9806 in assay [3] (10 uM); 0.8968 in assay [3] (20 uM); 1.047 in assay [3] (40 uM).

Take `COc1cc(/C=C/c2nc(-c3ccccc3O)n[nH]2)cc(OC)c1OC` [MLS000548725-01]: the “Burkin Assay in Myoblasts, value relative to DMSO” value in assay [1] (0.5 uM) is 0.9132; in assay [1] (1 uM) it was 0.8894; in assay [1] (5 uM), 0.8989; in assay [1] (10 uM) it was 0.7645; in assay [1] (20 uM) it was 0.5169; in assay [1] (40 uM) it was 0.07694. In addition, the “CMV-LACZ in Myotubes (β-galactosidase activity relative to DMSO)” value in assay [2] (5 uM) was found to be 0.9789; in assay [2] (10 uM), 1.126; in assay [2] (20 uM), 0.8729; in assay [2] (40 uM), 0.332. For the same compound, the “Burkin Assay in Myotubes (signal relative to DMSO)” value in assay [3] (0.5 uM) is on record as 0.8698; in assay [3] (1 uM), 0.8418; in assay [3] (5 uM), 0.9206; in assay [3] (10 uM) it was 0.8462; in assay [3] (20 uM), 1.031; in assay [3] (40 uM), 0.2219.

As to `CS(=O)(=O)c1ccc(Cl)c(NC(=O)CSc2nncn2-c2ccccc2)c1` [MLS001177364-01], the “Burkin Assay in Myoblasts, signal relative to DMSO” value was found to be 1.082 in assay [1] (0.5 uM); 0.9869 in assay [1] (1 uM); 0.9655 in assay [1] (5 uM); 0.9015 in assay [1] (10 uM); 1.005 in assay [1] (20 uM); 0.8386 in assay [1] (40 uM). In addition, the “CMV-LACZ in Myotubes, signal relative to DMSO” value in assay [2] (5 uM) was found to be 1.262; in assay [2] (10 uM) it was 0.9578; in assay [2] (20 uM) it was 1.053; in assay [2] (40 uM), 0.9743. Further, the “Burkin Assay in Myotubes, α7 integrin LacZ reporter signal relative to DMSO” value in assay [3] (0.5 uM) was 1.036; in assay [3] (1 uM) it was 0.9519; in assay [3] (5 uM) it was 1.235; in assay [3] (10 uM), 1.213; in assay [3] (20 uM), 1.125; in assay [3] (40 uM), 0.6717.
